Experimental data from PMC11960969, “Mdga2 deficiency leads to an aberrant activation of BDNF/TrkB signaling that underlies autism-relevant synaptic and behavioral changes in mice” (PLOS Biology, 2025).
No end group written: not given here.

What was measured:
[1] = system: ASD animal models; conditions: VRK3-deficient mice and D2-deficient mice with early-life stress; cited from earlier work
[2] = system: human TrkB protein; experiment: GST pull-down of purified human TrkB with MDGA2 fragments; format: binding; conditions: in vitro, GST-tagged fragments
Experimental: Full-length human TrkB or MDGA2 cDNA was cloned into the pcDNA6-His vector. TrkB and MDGA2 proteins were expressed in HEK293T cells and then purified using a His-tag Protein Purification Kit (Beyotime, Cat# P2229S).
GST pull-down: GST-fused MDGA2 fragments (L1: MDGA2 aa 746−786; L2: MDGA2 aa 787−833) were expressed in bacteria and purified using Glutathione Sepharose 4B (GE Healthcare, Cat# 17-0756-01). Purified human TrkB protein was incubated with GST-fused MDGA2-L1, MDGA2-L2, or GST proteins and then pulled down with Glutathione Sepharose 4B.

[3] = system: TrkB; experiment: Biotin pull-down of TrkB after intrahippocampal injection of biotin-peptides; format: in vivo; conditions: 1 μg biotin-conjugated peptide bilaterally into mouse hippocampus, 24 h
[4] = system: TrkB signaling pathway; experiment: Immunoblotting of TrkB signaling in hippocampal neurons treated with NLGN1 siRNA; format: cell-based, mouse; conditions: NLGN1 knockdown in MDGA2-deficient hippocampal neurons, n = 4
Description: NLGN1-targeting siRNA and scrambled control siRNA were synthesized by GenePharma (Shanghai, China). The sequences were as follows: NLGN1 siRNA sense: 5′-[…]-[…]-3′, NLGN1 siRNA antisense: 5′-[…]-3′. Scrambled control siRNA sense: 5′-[…]-3′, Scrambled control siRNA antisense: 5′-[…]-3′
Plasmids were transfected into HEK293T, SH-SY5Y, and HeLa cells using Turbofect transfection reagent (ThermoFisher), following the manufacturer’s instructions. Primary neurons were transfected with plasmids using Lipofectamine LTX (ThermoFisher, Cat# 15338100) or EntransterTM-H4000 transfection reagent (Engreen Bio-system, Cat# 4000-6), and with siRNAs using Lipofectamine RNAiMAX (ThermoFisher, Cat# 13778100), following manufacturers’ protocols. The transfection efficiency of both Lipofectamine LTX and EntransterTM-H4000 exceeded 50%. […]
Supplementary file pbio.3003047.s003.tif: S3 Fig MDGA2 competes with brain-derived neurotrophic factor (BDNF) for tyrosine kinase B (TrkB) binding. […] The pTyr levels were quantified by densitometry, normalized to total TrkB levels, and then compared to those of WT littermates. n = 4 per group. […] Immunoprecipitated BDNF levels in Het samples were quantified by densitometry, normalized to input levels, and compared to WT controls (set to one arbitrary units). n = 4 per group. […]

O=c1cc(-c2ccccc2)oc2c(O)c(O)ccc12 [7.8-dihydroxyflavone, reference compound]
social deficits and repetitive self-grooming behavior [1]: rescued both social deficits and repetitive self-grooming behavior

L1: GST-fused MDGA2 fragment aa 746−786 (FHCGFEDGNICLFTQDDTDNFDWTKQSTATRNTKYTPNTGP; cysteine pairing not given here; also: GST-fused)
interaction with TrkB (GST pull-down) [2]: not GST-tagged L1 interacted with TrkB

L2: GST-fused MDGA2 fragment aa 787−833 (NADRSGSKEGFYMYIETSRPRLEGEKARLLSPVFSIAPKNPYGPTNT; also: GST-fused)
interaction with TrkB (GST pull-down) [2]: interacted with TrkB

NADRSGSKEGFYMYIETSRPRLEGE [MDGA2-P1, peptide of MDGA2 MAM domain, aa 787–811, biotin-labeled]
binding to TrkB in vivo (biotin pull-down) [3]: not P1, bound to TrkB in vivo

NLGN1 siRNA: NLGN1-targeting siRNA, sense 5′-CCUGUGUGGU-UCACUAAUATT-3′ (sense CCUGUGUGGUUCACUAAUATT; antisense UAUUAGUGAACCACACAGGTT; chemistry not given here)
effect on TrkB signaling pathway [4]: treated with either vehicle or NLGN1 siRNA
